{"source": "patent US8841341B2", "about": "“Pharmaceutical composition effective against biofilms” (Helmholtz-Zentrum fuer Infektionsforschung GmbH, priority 2007, dated 2014)", "assay_type_in_all_cases": "cell-based", "key": {"E. coli": {"system": "E. coli", "experiment": "Antibiotic activity against E. coli"}, "E. coli tolC": {"system": "E. coli tolC", "experiment": "Antibiotic activity against E. coli tolC in vitro", "conditions": "E. coli tolC has an impaired cell wall"}, "[1]": {"system": "Streptococcus mutans wild-type strain", "experiment": "Inhibition of biofilm formation in in vitro culture (live/dead BacLight staining, microtiter plate)", "conditions": "for inhibition at 0.025 µg/mL: Carolacton 0.025 μg/mL; for inhibition at 0.25 µg/mL: Carolacton 0.25 μg/mL; for inhibition at 2.5 µg/mL: Carolacton 2.5 μg/mL; for inhibition at 50 µg/mL: Carolacton 50 μg/mL", "protocol": "(§1) Using Streptococcus mutans as a model organism that generates biofilms, overnight cultures of Streptococcus mutans in THB medium (Todd Hewitt Broth, available from Bacto) were diluted 1:100 into fresh THB medium containing 0.5% wt/vol sucrose. For anaerobic growth, medium was flushed with nitrogen before use. Aliquots of the diluted culture (95 μL) of Example 1 were distributed into the wells of a 96-well polystyrene flat bottom microtiter plate, containing 5 μL of different concentrations of test compound or alternatively, 5 μL methanol as a control. Microtiter plates were incubated under aerobic and an anaerobic conditions, respectively, at 37° C. for approximately 24 hours. For non-biofilm forming growth, e.g. planctonic growth, cells were grown in THB without the additional sucrose under otherwise identical conditions.\n(§2) Bacterial growth was monitored in the microtiter plate by optical density readings at 620 nm. Quantitative bio film formation was determined using the live/dead bacLight bacterial viability staining kit (available under catalogue number L13152 from Molecular Probes, Eugene, Oreg., USA). The kit incorporates two nucleic acid stains that differ in spectral characteristics and their ability to penetrate bacterial cell membranes. When used alone, the green fluorescing stain Cyto9 generally labels all bacteria in the population, whereas the red fluorescing stain propidium-iodide only penetrates bacteria having damaged membranes, causing a reduction in the Cyto9 stain fluorescence when both dyes are present.\nFor staining, the culture medium was removed from the microtiter plate wells and cells were washed once with 100 μL fresh THB medium to remove planctonic growing and loosely bound cells. According to all the manufacturer's instructions, the adherent bacteria, regarded as the bio film, were then stained for 15 min in the dark at room temperature, using 100 μL of a 1:1 mixture of the two dye components. Fluorescence was measured in a microtiter plate reader (Wallac Victor 1420 multilabel counter, PerkinElmer Life Sciences), equipped with detectors and filter sets for monitoring red and green fluorescence.\nQuantitative bio film formation was calculated by dividing the fluorescence intensities of the stained biofilms for each well of the microtiter plate at an emission of 530 nm (green) by the fluorescence intensity at the emission of 630 nm (red). As 100% activity, the results obtained from wells only containing methanol as the control, instead of a test compound, was used. Under anaerobic conditions, Carolacton inhibited formation of biofilm from Streptococcus mutans at very low concentrations.\nFor a determination of bio film inhibition in relation to the control, the activity value for the Carolacton comprising test well was subtracted from the value obtained for the control. At concentrations of 2.5 and 0.25 μg/mL Carolacton, respectively, bio film formation by Streptococcus mutans wild-type strain was inhibited by about 60% under anaerobic conditions."}, "[2]": {"system": "Streptococcus mutans com E (−) mutant", "experiment": "Inhibition of biofilm formation, quorum sensing negative mutant com E (-)"}, "[3]": {"system": "Streptococcus mutans com D (−) mutant", "experiment": "Inhibition of biofilm formation, quorum sensing negative mutant com D (-)", "conditions": "read-out: Biofilm inhibition, com D (−) mutant", "protocol": "as §1\nas §2, with “The kit incorporates two nucleic acid stains that differ in spectral characteristics and their ability to penetrate bacterial cell membranes.” left out, “present. […]” for “present.”"}, "[4]": {"system": "Streptococcus mutans com C (−) mutant", "experiment": "Biofilm formation, quorum sensing negative mutant com C (-)", "conditions": "same testing conditions", "protocol": "as §1\nas §2, with “The kit incorporates two nucleic acid stains that differ in spectral characteristics and their ability to penetrate bacterial cell membranes.” left out, “present. […]” for “present.”"}, "[5]": {"system": "Streptococcus mutans luxS mutant", "experiment": "Inhibition of biofilm formation, luxS mutant", "conditions": "read-out: Biofilm inhibition, luxS mutant", "protocol": "as §1\nas §2, with “The kit incorporates two nucleic acid stains that differ in spectral characteristics and their ability to penetrate bacterial cell membranes.” left out, “present. […]” for “present.”"}, "[6]": {"system": "Streptococcus mutans planctonic cultures", "experiment": "Planctonic growth (optical density readings at 620 nm)", "conditions": "THB without additional sucrose", "protocol": "as §1\nas §2, with “The kit incorporates two nucleic acid stains that differ in spectral characteristics and their ability to penetrate bacterial cell membranes.” left out"}, "[7]": {"conditions": "Streptococcus mutans, aerobic, read-out: Biofilm inhibition (%) under aerobic conditions"}, "[8]": {"conditions": "Streptococcus mutans, anaerobic, read-out: Biofilm inhibition (%) under anaerobic conditions"}}, "note": "“Also recorded” adds a separate entry of the source. Like-named read-outs stand apart in the source and are kept apart here.", "data": [{"smiles": "COC(CC(=O)O)C(C)C(=O)C(C)/C=C(\\C)C1OC(=O)C(O)C(O)/C=C/C(C)CCCC1C", "note": "(stereo not shown) [Carolacton]", "values": [{"measurement": "Concentration needed to inhibit E. coli", "setting": "E. coli", "result": "above 40 μg/mL"}, {"measurement": "Concentration with antibiotic activity against E. coli tolC", "setting": "E. coli tolC", "result": 60, "unit": "ng/mL"}, {"measurement": "inhibition at 0.025 µg/mL", "setting": "[1]; [7]", "result": 21, "unit": "%"}, {"measurement": "inhibition at 0.25 µg/mL", "setting": "[1]; [7]", "result": 21, "unit": "%"}, {"measurement": "inhibition at 2.5 µg/mL", "setting": "[1]; [7]", "result": 19, "unit": "%"}, {"measurement": "inhibition at 50 µg/mL", "setting": "[1]; [7]", "result": 1, "unit": "%"}, {"measurement": "inhibition at 0.0025 µg/mL", "setting": "[1]; Streptococcus mutans, anaerobic, Carolacton 0.0025 μg/mL, read-out: Biofilm inhibition (%) under anaerobic conditions", "result": -7, "unit": "%"}, {"measurement": "inhibition at 0.005 µg/mL", "setting": "[1]; Streptococcus mutans, anaerobic, Carolacton 0.005 μg/mL, read-out: Biofilm inhibition (%) under anaerobic conditions", "result": 35, "unit": "%"}, {"measurement": "inhibition at 0.025 µg/mL", "setting": "[1]; [8]", "result": "~65", "unit": "%"}, {"measurement": "inhibition at 0.05 µg/mL", "setting": "[1]; Streptococcus mutans, anaerobic, Carolacton 0.05 μg/mL, read-out: Biofilm inhibition (%) under anaerobic conditions", "result": 60, "unit": "%"}, {"measurement": "inhibition at 0.25 µg/mL", "setting": "[1]; [8]", "result": "~60", "unit": "%"}, {"measurement": "inhibition at 0.25 µg/mL", "setting": "[1]; Streptococcus mutans, anaerobic, second experiment, read-out: Biofilm inhibition (%) under anaerobic conditions", "result": 77, "unit": "%"}, {"measurement": "inhibition at 2.5 µg/mL", "setting": "[1]; [8]", "result": "~60", "unit": "%"}, {"measurement": "inhibition at 25 µg/mL", "setting": "[1]; Streptococcus mutans, anaerobic, Carolacton 25 μg/mL, read-out: Biofilm inhibition (%) under anaerobic conditions", "result": 66, "unit": "%"}, {"measurement": "inhibition at 50 µg/mL", "setting": "[1]; [8]", "result": 82, "unit": "%"}, {"measurement": "Lowest concentration achieving inhibition of biofilm generation", "setting": "[1]; in vitro cultures", "result": 0.005, "unit": "µg/mL"}, {"measurement": "Biofilm inhibition, com E (−) mutant", "setting": "[2]; Carolacton 2.5 μg/mL, same testing conditions", "result": 5, "unit": "%"}, {"measurement": "inhibition at 0.25 µg/mL", "setting": "[2]; Streptococcus mutans, read-out: Biofilm inhibition, com E (−) mutant", "result": 12, "unit": "%"}, {"measurement": "inhibition at 0.25 µg/mL", "setting": "[3]", "result": "~10", "unit": "%"}, {"measurement": "inhibition at 2.5 µg/mL", "setting": "[3]", "result": "~10", "unit": "%"}, {"measurement": "Induction of biofilm formation, com C (−) mutant", "setting": "[4]; Carolacton 0.25 μg/mL", "result": 150, "unit": "%"}, {"measurement": "Induction of biofilm formation, com C (−) mutant", "setting": "[4]; Carolacton 2.5 μg/mL", "result": 200, "unit": "%"}, {"measurement": "inhibition at 2.5 µg/mL", "setting": "[5]", "result": 59, "unit": "%"}, {"measurement": "inhibition at 40.25 µg/mL", "setting": "[5]", "result": 46, "unit": "%"}, {"measurement": "Influence on planctonic growth", "setting": "[6]", "result": "only slightly influenced; also recorded: not influenced by Carolacton, or only marginally reduced"}]}]}
